Reference: US9745328B2, “Flap modulators” (JANSSEN PHARMACEUTICA NV, priority 2013, dated 2017)
Structures can show the parent of a compound that is named as a salt.

These compounds were tested against human FLAP (Homo sapiens (Human), UniProt P20292) (assay: FLAP binding assay (HTRF format)). Settings: Table 6 (additional runs), human FLAP wild type.
Experimental: The ability of the compounds of the present invention to treat a FLAP-mediated disease and/or disorder, or associated symptoms or complications thereof, was determined using the following procedures. Binding assay data represent the average value obtained from two different assay plates, with samples run in duplicate on each plate. Human whole blood assay data represent a single replicate on an assay plate using whole blood from at least one healthy donor.
Data are expressed as a HTRF ratio.

human FLAP, sequence (P20292 whole entry): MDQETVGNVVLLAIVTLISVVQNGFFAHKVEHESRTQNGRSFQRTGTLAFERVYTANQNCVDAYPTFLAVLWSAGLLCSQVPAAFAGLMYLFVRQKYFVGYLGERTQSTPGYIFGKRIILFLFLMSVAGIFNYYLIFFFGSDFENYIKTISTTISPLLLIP

SMILES | Ki [nM]
O=C1NCC[C@@H]1NS(=O)(=O)c1ccccc1-c1ccc(-c2cnc3[nH]ccc3c2)c(F)c1 [Example 364, 3′-Fluoro-N-[(3S)-2-oxopyrrolidin-3-yl]-4′-(1H-pyrrolo[2,3-b]pyridin-5-yl)biphenyl-2-sulfonamide] | 2.5
Nc1cnc(-c2ccc(-c3ccccc3NS(=O)(=O)N3CCCC3)cc2F)cn1 [Example 181, N-[4′-(5-Aminopyrazin-2-yl)-3′-fluorobiphenyl-2-yl]pyrroildine-1-sulfonamide] | 6.7
CSc1ccc(F)cc1-c1ccc(-c2cnc3[nH]ccc3n2)c(F)c1 [Example 383] | 7.9
CCSc1ccccc1-c1ccc(-c2cnc3[nH]ccc3n2)c(F)c1 [Example 384, 2-[2′-(Ethylsulfanyl)-3-fluorobiphenyl-4-yl]-5H-pyrrolo[2,3-b]pyrazine] | 3.9
N#CC1CN(S(=O)(=O)c2ccccc2-c2ccc(-c3cnc(N)nc3)c(F)c2)C1 [Example 314, 1-((4′-(2-aminopyrimidin-5-yl)-3′-fluoro-[1,1′-biphenyl]-2-yl)sulfonyl)azetidine-3-carbonitrile] | 88.8
Nc1cnc(-c2ccc(-c3ccccc3Sc3cc(N)ncn3)cc2F)cn1 [Example 215, 6-{[4′-(5-Aminopyrazin-2-yl)-3′-fluorobiphenyl-2-yl]sulfanyl}pyrimidin-4-amine hydrochloride] | 2.4
C[C@H](CO)NS(=O)(=O)c1ccccc1-c1ccc(-c2cnc3c(c2)OCCN3)c(F)c1 [Example 390, 4′-(3,4-Dihydro-2H-pyrido[3,2-b][1,4]oxazin-7-yl)-3′-fluoro-N-[(1R)-2-hydroxy-1-methylethyl]biphenyl-2-sulfonamide] | 0.4

Next, values leading:

Ki [nM] | SMILES
1.3 | CC(NS(=O)(=O)c1ccccc1-c1ccc(-c2cnc(N)cn2)c(F)c1)C(F)(F)F (racemic) [Example 8, (racemic)-4′-(5-Aminopyrazin-2-yl)-3′-fluoro-N-(2,2,2-trifluoro-1-methylethyl)biphenyl-2-sulfonamide racemic]
3.2 | Nc1cnc(-c2ccc(-c3ccccc3S(=O)(=O)N[C@@H]3CCCC[C@@H]3O)cc2F)cn1 [Example 87, 4′-(5-Aminopyrazin-2-yl)-3′-fluoro-N-[(1R,2S)-2-hydroxycyclohexyl]biphenyl-2-sulfonamide]
178 | CS(=O)(=O)Nc1ccccc1-c1ccc(-c2cnc(N)cn2)c(F)c1 [Example 2, N-[4′-(5-Aminopyrazin-2-yl)-3′-fluorobiphenyl-2-yl]methanesulfonamide]
9.5 | Nc1cnc(-c2ccc(-c3ccccc3S(=O)(=O)N3CC[C@@H](O)C3)cc2F)cn1 [Example 185, (3R)-1-{[4′-(5-Aminopyrazin-2-yl)-3′-fluoroblphenyl-2-yl]sulfonyl}pyrrolidin-3-ol]
0.8 | CC(C)(CO)NS(=O)(=O)c1ccccc1-c1ccc(-c2cnc(N)cn2)c(F)c1 [Example 100, 4′-(5-Aminopyrazin-2-yl)-3′-fluoro-N-(2-hydroxy-1,1-dimethylethyl)biphenyl-2-sulfonamide]
10.2 | CN(C)S(=O)(=O)c1ccccc1-c1ccc(-c2cnc(N)cn2)c(F)c1 [Example 42, 4′-(5-Aminopyrazin-2-yl)-3′-fluoro-N,N-dimethylbiphenyl-2-sulfonamide]
4.9 | Nc1cnc(-c2ccc(-c3ccccc3S(=O)(=O)NC3CC3)cc2F)cn1 [Example 89, 4′-(5-Aminopyrazin-2-yl)-N-cyclopropyl-3′-fluoroblphenyl-2-sulfonamide]
1.2 | CC(C)(NS(=O)(=O)c1ccccc1-c1ccc(-c2cnc(N)cn2)c(F)c1)C(F)(F)F [Example 13, 4′-(5-4minopyrazin-2-yl)-3′-fluoro-N-(2,2,2-trifluoro-1,1-dimethylethyl)biphenyl-2-sulfonamide]
1.3 | Nc1cnc(-c2ccc(-c3ccccc3S(=O)(=O)N3CCCC(F)(F)C3)cc2F)cn1 [Example 50, 5-{2′-[(3,3-Difluoropiperidin-1-yl)sulfonyl)-3-fluorobiphenyl-4-yl}pyrazin-2-amine]
9.5 | Nc1cnc(-c2ccc(-c3ccccc3S(=O)(=O)N[C@H]3CCCNC3=O)cc2F)cn1 [Example 108, (S)-4′-(5-aminopyrazin-2-yl)-3′-fluoro-N-(2-oxopiperidin-3-yl)-[1,1′-biphenyl]-2-sulfonamide]
0.4 | Nc1cnc(-c2ccc(-c3ccc(C(F)(F)F)cc3S(=O)(=O)NCCO)cc2F)cn1 [Example 210, 4′-(5-aminopyrazin-2-yl)-3′-fluoro-N-(2-hydroxyethyl)-4-(trifluoromethyl)biphenyl-2-sulfonamide]
0.4 | C[C@@H]([C@@H](O)c1ccccc1)N(C)S(=O)(=O)c1ccccc1-c1ccc(-c2cnc(N)cn2)c(F)c1 [Example 118, 4′-(5-aminopyrazin-2-yl)-3′-fluoro-N-((1S,2S)-1-hydroxy-1-phenylpropan-2-yl)-N-methyl-[1,1′-biphenyl)-2-sulfonamide]
66.2 | CC(C)(C)Sc1ccccc1-c1ccc(-c2cnc(N)cn2)c(F)c1 [Example 190, 5-[2′-(tert-Butylsulfanyl)-3-fluorobiphenyl-4-yl]pyrazin-2-amine]
2.4 | CC(C)CNS(=O)(=O)c1ccccc1-c1ccc(-c2cnc(N)nc2)c(F)c1 [Example 294, 4′-(2-Aminopyrimidin-5-yl)-3′-fluoro-N-(2-methylpropyl)biphenyl-2-sulfonamide trifiuoroacetic acid salt]
1.1 | Nc1cnc(-c2ccc(-c3ccccc3S(=O)(=O)N[C@H]3CCCC[C@@H]3O)cc2F)cn1 (racemic) [Example 120, racemic (trans)-4′-(5-Aminopyrazin-2-yl)-3′-fluoro-N-(2-hydroxycyclohexyl)biphenyl-2-sulfonamide]

Same assay, conditions: human FLAP wild type, Table 6 (additional runs)

SMILES | Ki [nM]
CC(C)(C)NS(=O)(=O)c1ccccc1-c1ccc(-c2cc(N)c3[nH]ccc3c2)c(F)c1 [Example 458, 4′-(7-Amino-1H-indol-5-yl)-N-tert-butyl-3′-fluorobiphenyl-2-sulfonamide] | 4.2
COc1cnc(Oc2ccccc2-c2ccc(-c3cnc(N)nc3)c(F)c2)nc1 [Example 550, 5-{3-Fluoro-2′-[(5-methoxypyrimidin-2-yl)oxy]biphenyl-4-yl}pyrimidin-2-amine] | 1.7
C[C@H](NS(=O)(=O)c1ccccc1-c1ccc(-c2cnc(N)nc2)nc1)C(F)(F)F [Example 685, 2-[6-(2-Aminopyrimidin-5-yl)pyridin-3-yl]-N-[(1S)-2,2,2-trifluoro-1-methylethyl]benzenesulfonamide trifluoroacetic acid salt] | 59.2
Nc1cnc(-c2ccc(-c3cccnc3OC3CCS(=O)(=O)CC3)cc2F)cn1 [Example 647, 5-(4-{2-[(1,1-Dioxidotetrahydro-2H-thiopyran4-yl)oxy]pyridin-3-yl}-2-fluorophenyl)pyrazin-2-amine] | 227
CC(C)(C)NS(=O)(=O)c1ccccc1-c1ccc(-c2cnc(N)nc2)c(F)c1F [Example 466, 4′-(2-Aminopyrimidin-5-yl)-N-tert-butyl-2′,3′-difluorobipenyl-2-sulfonamide trifluoroacetic acid salt] | ~254
Nc1cnc(-c2ccc(-c3ccc(C(F)(F)F)cc3C(=O)N3CCOCC3)cc2F)cn1 [Example 521, 5-[3-Fluoro-2′-(morpholin-4-ylcarbonyl)-4′-(trifluoromethyl)biphenyl-4-yl]pyrazin-2-amine] | 5.4
CC(C)(C)NS(=O)(=O)c1ccccc1-c1ccc(-c2cnc3[nH]cc(CO)c3c2)c(F)c1 [Example 455, N-tert-Butyl-3′-fluoro-4′-[3-(hydroxymethyl)-1H-pyrrolo[2,3-b]pyridin-5-yl]biphenyl-2-sulfonamide] | 0.7
Cc1cc(N)nc(Oc2ccccc2-c2ccc(-c3cnc(N)cn3)c(F)c2)n1 [Example 616, 2-{[4′-(5-Aminopyrazin-2-yl)-3′-fluorobiphenyl-2-yl]oxy}-6-methylpyrimidin-4-amine] | 16.4
Nc1ncc(-c2ccc(-c3cccnc3OC3CCNCC3)cc2F)cn1 [Example 646, 5-{2-Fluoro-4-[2-(piperidin-4-yloxy)pyridin-3-yl]phenyl}pyrimidin-2-amine] | > 10000
Nc1cnc(-c2ccc(-c3ccc(C(F)(F)F)cc3Oc3nccc(N)n3)cc2F)cn1 [Example 556, 2-{[4′-(5-Aminopyrazin-2-yl)-3′-fluoro-4-(trifluoromethyl)biphenyl-2-yl]oxy}pyrimidin-4-amine] | 0.7
Nc1cnc(Oc2ccccc2-c2ccc(-c3cnc(N)nc3)c(F)c2)nc1 [Example 615, 5-{2′-[(5-Aminopyrimidin-2-yl)oxy]-3-fluorobiphenyl-4-yl}pyrimidin-2-amine] | 50.9
Nc1ccnc(Oc2ccccc2-c2ccc(-c3cnc4[nH]ccc4c3)c(F)c2)n1 [Example 524, 2-{[3′-Fluoro-4′-(1H-pyrrolo[2,3-b]pyridin-5-yl)biphenyl-2-yl]oxy}pyrimidin-4-amine] | 0.7
Nc1cnc(-c2ccc(-c3ccccc3Oc3nccc(N)n3)cc2F)cn1 [Example 528, 2-{[4′-(5-Aminopyrazin-2-yl)-3′-fluorobiphenyl-2-yl]oxy}pyrimidin-4-amine] | 5.5

The remaining lines, values ahead:

Ki [nM] | SMILES
1.1 | CC(C)(C)NS(=O)(=O)c1ccccc1-c1ccc(-c2cnc(N)c(C#N)n2)c(F)c1 [Example 434, 4′-(5-Amino-6-cyanopyrazin-2-yl)-N-tert-butyl-3′-fluorobiphenyl-2-sulfonamide]
397 | Cc1ccccc1-c1ccc(-c2cnc(N)cn2)c(F)c1 [Example 470, 5-(3-Fluoro-2′-methylbiphenyl-4-yl)pyrazin-2-amine]
73 | COc1ccccc1-c1ccc(-c2cnc(N)cn2)c(F)c1 [Example 473, 5-(3-Fluoro-2′-methoxybiphenyl-4-yl)pyrazin-2-amine]
10.9 | CC(O)CNS(=O)(=O)c1ccccc1-c1ccc(-c2cnc(N)c(C#N)n2)c(F)c1 (stereo in doubt) [Example 415, 4′-(5-Amine-6-cyanopyrazin-2-yl)-3′-fluoro-N-[(R)-2-hydroxypropyl]biphenyl-2-sulfonamide]

Same assay, conditions: human FLAP wild type, a calculated value of 0.000 indicates Ki less than 1 nM

Ki [nM] | SMILES
< 1 | Nc1cnc(-c2ccc(-c3ccc(C(F)(F)F)cc3S(=O)(=O)NCCO)cc2F)cn1 [Example 210, 4′-(5-aminopyrazin-2-yl)-3′-fluoro-N-(2-hydroxyethyl)-4-(trifluoromethyl)biphenyl-2-sulfonamide]
< 1 | C[C@@H]([C@@H](O)c1ccccc1)N(C)S(=O)(=O)c1ccccc1-c1ccc(-c2cnc(N)cn2)c(F)c1 [Example 118, 4′-(5-aminopyrazin-2-yl)-3′-fluoro-N-((1S,2S)-1-hydroxy-1-phenylpropan-2-yl)-N-methyl-[1,1′-biphenyl)-2-sulfonamide]
< 1 | C[C@H](CO)NS(=O)(=O)c1ccccc1-c1ccc(-c2cnc3c(c2)OCCN3)c(F)c1 [Example 390, 4′-(3,4-Dihydro-2H-pyrido[3,2-b][1,4]oxazin-7-yl)-3′-fluoro-N-[(1R)-2-hydroxy-1-methylethyl]biphenyl-2-sulfonamide]
